According to patent US8716292B2, “Riminophenazines with 2-(heteroaryl)amino substituents and their anti-microbial activity” (priority 2010, dated 2014):
In brackets after ≈: the same amount, converted by molar mass.

The compounds below were run on Mycobacterium tuberculosis H37Rv strains (assay: In vitro assay for antimicrobial susceptibility (microplate Alamar blue MIC)). Details: Mycobacterium tuberculosis, H37RV, in vitro, Mycobacterium tuberculosis H37Rv strains; read-out: MIC (μg/mL) against H37Rv.
Assay type: cell-based

Question: Which MIC does the source give for Cc1ccc(Nc2cc3nc4cc(F)ccc4n(-c4ccc(OC(F)(F)F)cc4)c-3c/c2=N\C2CCCCC2)cn1 [TBI-865, 8-Fluoro-5-(4-trifluoromethoxyphenyl)-3-cyclohexylimino-2-(6-methyl-3-pyridyl)amino-3,5-dihydrophenazine] here?
Answer: 0.031 µg/mL (≈ 0.0552 µM)

Question: How did the MIC turn out when COC1CCC(/N=c2\cc3n(-c4ccc(OC(F)(F)F)cc4)c4ccc(F)cc4nc-3cc2Nc2ccc(C)nc2)CC1 (stereo not shown) [TBI-866, 8-Fluoro-5-(4-trifluoromethoxyphenyl)-3-(4-methoxycyclohexyl)imino-2-(6-methyl-3-pyridyl)amino-3,5-dihydrophenazine] was run?
Answer: 0.027 µg/mL (≈ 0.0456 µM)

Question: With COc1ccc2nc3cc(Nc4ccc(C)nc4)/c(=N/C4CCC(OC)CC4)cc-3n(-c3ccc(Cl)cc3)c2c1 (stereo not shown) [TBI-867, 7-Methoxy-5-(4-chlorophenyl)-3-(4-methoxycyclohexyl)imino-2-(6-methyl-3-pyridyl-amino)-3,5-dihydrophenazine] as the compound, how does the MIC read?
Answer: 0.058 µg/mL (≈ 0.105 µM)

Question: For COc1ccc2nc3cc(Nc4ccc(C)nc4)/c(=N/C4CC4)cc-3n(-c3ccc(Cl)cc3)c2c1 [TBI-868, 7-Methoxy-5-(4-chlorophenyl)-3-cyclopropylimino-2-(6-methyl-3-pyridyl)amino-3,5-dihydrophenazine], which MIC is on record?
Answer: 0.028 µg/mL (≈ 0.0581 µM)

Question: Which MIC does the source give for COc1ccc2nc3cc(Nc4ccc(C)nc4)/c(=N/C4CCCCC4)cc-3n(-c3ccc(Cl)cc3)c2c1 [TBI-869, 7-Methoxy-5-(4-chlorophenyl)-3-cyclohexylimino-2-(6-methyl-3-pyridyl)amino-3,5-dihydrophenazine] here?
Answer: 0.056 µg/mL (≈ 0.107 µM)

Question: How did the MIC turn out when COc1ncccc1Nc1cc2nc3ccccc3n(-c3ccccc3Cl)c-2c/c1=N\C1CCOCC1 [TBI-870] was run?
Answer: 0.084 µg/mL (≈ 0.164 µM)

Question: COCC(COC)/N=c1\cc2n(-c3ccc(Cl)cc3)c3ccccc3nc-2cc1Nc1cccnc1OC [TBI-871, 5-(4-Chlorophenyl)-3-(1,3-dimethoxyisopropyl)imino-2-(2-methoxy-3-pyridyl)amino-3,5-dihydrophenazine] was tested. Which MIC did it give?
Answer: 0.03 µg/mL (≈ 0.0566 µM)

Question: Which MIC does the source give for COCC(C/N=c1\cc2n(-c3ccc(Cl)cc3)c3ccccc3nc-2cc1Nc1cccnc1OC)OC (stereo not shown) [TBI-872, 5-(4-Chlorophenyl)-3-(2,3-dimethoxy-1-propyl)imino-2-(2-methoxy-3-pyridyl)amino-3,5-dihydrophenazine] here?
Answer: 0.06 µg/mL (≈ 0.113 µM)

Question: For Cc1ccc(Nc2cc3nc4cc(F)ccc4n(-c4ccc(Cl)c(Cl)c4)c-3c/c2=N\C2CCOCC2)cn1 [TBI-873, 8-Fluoro-5-(3,4-dichlorophenyl)-3-(4-tetrahydropyranyl)imino-2-(6-methyl-3-pyridyl)amino-3,5-dihydrophenazine], which MIC is on record?
Answer: 0.076 µg/mL (≈ 0.139 µM)

Question: Which MIC does the source give for COc1ncccc1Nc1cc2nc3cc(F)ccc3n(-c3ccc(Cl)c(Cl)c3)c-2c/c1=N\C(C)C [TBI-874, 8-Fluoro-5-(3,4-dichlorophenyl)-3-(1-methylethyl)imino-2-(2-methoxy-3-pyridyl)amino-3,5-dihydrophenazine] here?
Answer: 0.129 µg/mL (≈ 0.247 µM)

Question: COc1ncccc1Nc1cc2nc3cc(F)ccc3n(-c3ccc(Cl)c(Cl)c3)c-2c/c1=N\C1CC1 [TBI-875, 8-Fluoro-5-(3,4-dichlorophenyl)-3-cyclopropylimino-2-(2-methoxy-3-pyridyl)amino-3,5-dihydrophenazine] was tested. Which MIC did it give?
Answer: 0.047 µg/mL (≈ 0.0903 µM)

Question: Which MIC does the source give for COc1ncccc1Nc1cc2nc3cc(F)ccc3n(-c3ccc(Cl)c(Cl)c3)c-2c/c1=N\C1CCOCC1 [TBI-877, 8-Fluoro-5-(3,4-dichlorophenyl)-3-(4-tetrahydropyranyl)imino-2-(2-methoxy-3-pyridyl)amino-3,5-dihydrophenazine] here?
Answer: 0.091 µg/mL (≈ 0.161 µM)

Question: Which MIC does the source give for COC1CCC(/N=c2\cc3n(-c4ccc(Cl)c(Cl)c4)c4ccc(F)cc4nc-3cc2Nc2ccc(C)nc2)CC1 (stereo not shown) [TBI-878, 8-Fluoro-5-(3,4-dichlorophenyl)-3-(4-methoxycyclohexyl)imino-2-(6-methyl-3-pyridinyl)amino-3,5-dihydrophenazine] here?
Answer: 0.029 µg/mL (≈ 0.0503 µM)

Question: For COc1ncccc1Nc1cc2nc3cc(F)ccc3n(-c3ccc(Cl)c(Cl)c3)c-2c/c1=N\C1CCC(OC)CC1 (stereo not shown) [TBI-879, 8-Fluoro-5-(3,4-dichlorophenyl)-3-(4-methoxycyclohexyl)imino-2-(2-methoxy-3-pyridyl)amino-3,5-dihydrophenazine], which MIC is on record?
Answer: 0.109 µg/mL (≈ 0.184 µM)

Question: For Clc1ccc(-n2c3c/c(=N\C4CCOCC4)c(Nc4cncc(Br)c4)cc-3nc3ccccc32)cc1 [TBI-880, 5-(4-Chlorophenyl)-3-(4-tetrahydropyranyl)imino-2-(5-bromo-3-pyridyl)amino-3,5-dihydrophenazine], which MIC is on record?
Answer: 0.036 µg/mL (≈ 0.0642 µM)

Question: Which MIC does the source give for CO[C@H]1CC[C@H](/N=c2\cc3n(-c4ccc(Cl)cc4)c4ccccc4nc-3cc2Nc2cncc(Br)c2)CC1 [TBI-881, 5-(4-Chlorophenyl)-3-(1′,4′-trans-4-methoxycyclohexyl)imino-2-(5-bromo-3-pyridyl)amino-3,5-dihydrophenazine] here?
Answer: 0.052 µg/mL (≈ 0.0883 µM)

Question: Clc1ccc(-n2c3c/c(=N\C4CC4)c(Nc4cncc(Br)c4)cc-3nc3ccccc32)cc1 [TBI-882, 5-(4-Chlorophenyl)-3-cyclopropylimino-2-(5-bromo-3-pyridyl)amino-3,5-dihydrophenazine] was tested. Which MIC did it give?
Answer: 0.015 µg/mL (≈ 0.029 µM)

Question: Which MIC does the source give for Clc1ccc(-n2c3c/c(=N\C4CCC4)c(Nc4cncc(Br)c4)cc-3nc3ccccc32)cc1 [TBI-883, 5-(4-Chlorophenyl)-3-cyclobutylimino-2-(5-bromo-3-pyridyl)amino-3,5-dihydrophenazine] here?
Answer: 0.03 µg/mL (≈ 0.0565 µM)

Question: Which MIC does the source give for COc1ncccc1Nc1cc2nc3ccc(F)cc3n(-c3ccc(Cl)c(Cl)c3)c-2c/c1=N\C1CCOCC1 [TBI-884, 7-Fluoro-5-(3,4-dichlorophenyl)-3-(4-tetrahydropyranyl)imino-2-(2-methoxy-3-pyridyl)amino-3,5-dihydrophenazine] here?
Answer: 0.5 µg/mL (≈ 0.886 µM)

Question: For COc1ncccc1Nc1cc2nc3ccc(F)cc3n(-c3ccc(Cl)c(Cl)c3)c-2c/c1=N\C1CC1 [TBI-885, 7-Fluoro-5-(3,4-dichlorophenyl)-3-cyclopropylimino-2-(2-methoxy-3-pyridyl)amino-3,5-dihydrophenazine], which MIC is on record?
Answer: 0.06 µg/mL (≈ 0.115 µM)

Question: Which MIC does the source give for COc1ncccc1Nc1cc2nc3ccc(F)cc3n(-c3ccc(Cl)c(Cl)c3)c-2c/c1=N\C1CCC1 [TBI-886, 7-Fluoro-5-(3,4-dichlorophenyl)-3-cyclobutylimino-2-(2-methoxy-3-pyridyl)amino-3,5-dihydrophenazine] here?
Answer: 0.06 µg/mL (≈ 0.112 µM)

Question: Which MIC does the source give for Cc1ccc(Nc2cc3nc4cc(F)ccc4n(-c4ccc(Cl)c(Cl)c4)c-3c/c2=N\C(C)C)cn1 [TBI-887, 8-Fluoro-5-(3,4-dichlorophenyl)-3-(1-methylethyl)imino-2-(6-methyl-3-pyridyl)amino-3,5-dihydrophenazine] here?
Answer: 0.062 µg/mL (≈ 0.122 µM)

Question: Cc1ccc(Nc2cc3nc4cc(F)ccc4n(-c4ccc(Cl)c(Cl)c4)c-3c/c2=N\C2CC2)cn1 [TBI-888] was tested. Which MIC did it give?
Answer: 0.028 µg/mL (≈ 0.0555 µM)

Question: With CC(C)/N=c1\cc2n(-c3ccccc3Cl)c3ccccc3nc-2cc1Nc1cccnc1 [TBI-890, 5-(2-Chlorophenyl)-3-(1-methylethyl)imino-2-(3-pyridyl)amino-3,5-dihydrophenazine] as the compound, how does the MIC read?
Answer: 0.476 µg/mL (≈ 1.08 µM)

Question: How did the MIC turn out when Clc1ccccc1-n1c2c/c(=N\C3CCCCC3)c(Nc3cccnc3)cc-2nc2ccccc21 [TBI-891, 5-(2-Chlorophenyl)-3-cyclohexylimino-2-(3-pyridyl)amino-3,5-dihydrophenazine] was run?
Answer: 0.036 µg/mL (≈ 0.075 µM)

Question: How did the MIC turn out when Clc1ccccc1-n1c2c/c(=N\C3CC3)c(Nc3cccnc3)cc-2nc2ccccc21 [TBI-892, 5-(2-Chlorophenyl)-3-cyclopropylimino-2-(3-pyridyl)amino-3,5-dihydrophenazine] was run?
Answer: 0.028 µg/mL (≈ 0.0639 µM)

Question: How did the MIC turn out when COc1ncccc1Nc1cc2nc3ccccc3n(-c3ccc(Cl)cc3Cl)c-2c/c1=N\C1CCC1 [TBI-893, 5-(2,4-Dichlorophenyl)-3-cyclobutylimino-2-(2-methoxy-3-pyridyl)amino-3,5-dihydrophenazine] was run?
Answer: 0.06 µg/mL (≈ 0.116 µM)

Question: For COc1ccc2nc3cc(Nc4cccnc4OC)/c(=N/C4CC4)cc-3n(-c3ccc(Cl)cc3)c2c1 [TBI-894, 7-Methoxy-5-(4-chlorophenyl)-3-cyclopropylimino-2-(2-methoxy-3-pyridyl)amino-3,5-dihydrophenazine], which MIC is on record?
Answer: 0.06 µg/mL (≈ 0.12 µM)

Question: For COc1ccc2nc3cc(Nc4cccnc4OC)/c(=N/C4CCC4)cc-3n(-c3ccc(Cl)cc3)c2c1 [TBI-895, 7-Methoxy-5-(4-chlorophenyl)-3-cyclobutylimino-2-(2-methoxy-3-pyridyl)amino-3,5-dihydrophenazine], which MIC is on record?
Answer: 0.125 µg/mL (≈ 0.244 µM)

Question: Which MIC does the source give for Cc1ccc(Nc2cc3nc4ccc(F)cc4n(-c4ccc(Cl)c(Cl)c4)c-3c/c2=N\C(C)C)cn1 [TBI-896, 7-Fluoro-5-(3,4-dichlorophenyl)-3-(1-methylethyl)imino-2-(6-methyl-3-pyridyl)amino-3,5-dihydrophenazine] here?
Answer: 0.25 µg/mL (≈ 0.494 µM)

Question: With COC1CCC(/N=c2\cc3n(-c4ccc(Cl)c(Cl)c4)c4cc(F)ccc4nc-3cc2Nc2ccc(C)nc2)CC1 (stereo not shown) [TBI-897, 7-Fluoro-5-(3,4-dichlorophenyl)-3-(4-methoxycyclohexyl)imino-2-(6-methyl-3-pyridyl)amino-3,5-dihydrophenazine] as the compound, how does the MIC read?
Answer: 0.25 µg/mL (≈ 0.434 µM)

Question: Which MIC does the source give for COc1ccc2nc3cc(Nc4ccc(C)nc4)/c(=N/C(C)C)cc-3n(-c3ccc(Cl)cc3)c2c1 [TBI-898] here?
Answer: 0.25 µg/mL (≈ 0.517 µM)

Question: How did the MIC turn out when COc1ncccc1Nc1cc2nc3ccc(F)cc3n(-c3ccc(Cl)c(Cl)c3)c-2c/c1=N\C(C)C [TBI-899, 7-Fluoro-5-(3,4-dichlorophenyl)-3-(1-methylethyl)imino-2-(2-methoxy-3-pyridyl)amino-3,5-dihydrophenazine] was run?
Answer: 0.125 µg/mL (≈ 0.239 µM)

Question: How did the MIC turn out when Cc1ccc(Nc2cc3nc4ccccc4n(-c4ccc(F)cc4)c-3c/c2=N\C2CCOCC2)cn1 [TBI-900, 5-(4-Fluorophenyl)-3-(4-tetrahydropyranyl)imino-2-(6-methyl-3-pyridyl)amino-3,5-dihydrophenazine] was run?
Answer: 0.125 µg/mL (≈ 0.261 µM)

Question: Cc1ccc(Nc2cc3nc4ccccc4n(-c4ccc(F)cc4)c-3c/c2=N\C2CCN(C)CC2)cn1 [TBI-901, 5-(4-Fluorophenyl)-3-(N-methyl-4-piperidyl)imino-2-(6-methyl-3-pyridyl)amino-3,5-dihydrophenazine] was tested. Which MIC did it give?
Answer: 0.102 µg/mL (≈ 0.207 µM)

Question: With Cc1ccc(Nc2cc3nc4ccccc4n(-c4ccc(F)cc4)c-3c/c2=N\CC2CCCN(C)C2)cn1 (stereo not shown) [TBI-902, 5-(4-Fluorophenyl)-3-(N-methyl-3-piperidylmethyl)imino-2-(6-methyl-3-pyridyl)amino-3,5-dihydrophenazine] as the compound, how does the MIC read?
Answer: 0.058 µg/mL (≈ 0.114 µM)

Question: With Cc1ccc(Nc2cc3nc4ccccc4n(-c4ccc(F)cc4)c-3c/c2=N\C2CCN(CC(C)C)CC2)cn1 [TBI-904, 5-(4-Fluorophenyl)-3-(N-isobutyl-4-piperidyl)imino-2-(6-methyl-3-pyridyl)amino-3,5-dihydrophenazine] as the compound, how does the MIC read?
Answer: 0.016 µg/mL (≈ 0.0299 µM)
